Source: patent US11566030B2, “Substituted 2,6-dihydropyrrolo[3,4-c]pyrazoles as pyruvate kinase activators” (priority 2021, dated 2023)

Assays:
[1] = system: mouse model of beta-thalassemia; conditions: cited from earlier work
[2] = target: T1, Human pyruvate kinase R (PKR) (Homo sapiens, UniProt P30613); experiment: Biochemical assay for activation of pyruvate kinase R (Kinase-Glo luminescence, ATP generation)
T1 construct: Human pyruvate kinase R (PKR), residues 14-574; 6xHis-8xArg-SUMO (N, cleaved yes); host or cells: E. coli
T1 sequence (P30613 14-574): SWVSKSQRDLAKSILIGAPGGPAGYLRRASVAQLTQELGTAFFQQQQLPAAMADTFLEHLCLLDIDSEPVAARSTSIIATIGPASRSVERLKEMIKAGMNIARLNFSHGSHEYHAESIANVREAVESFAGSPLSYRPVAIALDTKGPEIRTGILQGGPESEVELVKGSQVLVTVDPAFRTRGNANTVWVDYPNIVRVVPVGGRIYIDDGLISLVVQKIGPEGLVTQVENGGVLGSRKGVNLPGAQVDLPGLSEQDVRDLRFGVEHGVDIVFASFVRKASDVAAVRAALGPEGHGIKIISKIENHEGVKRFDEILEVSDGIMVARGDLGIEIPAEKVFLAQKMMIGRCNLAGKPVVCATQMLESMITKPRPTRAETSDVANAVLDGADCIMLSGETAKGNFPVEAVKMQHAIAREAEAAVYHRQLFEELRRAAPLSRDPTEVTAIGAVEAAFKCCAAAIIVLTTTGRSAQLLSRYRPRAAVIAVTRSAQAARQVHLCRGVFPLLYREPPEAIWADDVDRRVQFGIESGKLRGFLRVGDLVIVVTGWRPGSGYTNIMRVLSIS
Method in brief: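 Recombinant human PKR (residues 14-574) expressed in E. coli with His-Arg-SUMO tag, tag cleaved, purified by Ni-NTA, anion exchange and size exclusion. Activation read as ATP generation by Kinase-Glo luminescence.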

Row | AC50 ([2]; PKR AC50 (nM), 0.1 nM PKR, 0.3 mM ADP, 0.1 mM PEP, 1% DMSO) | Emax ([2]; read-out: PKR % activation, maximal activation level achieved with each compound relative to the activation level achieved by AG-348 @ 10 μM) | SMILES | ATP levels [1] | PK activity [1] | RBC parameters [1]
1 |  |  | O=C(c1ccc(NS(=O)(=O)c2cccc3cccnc23)cc1)N1CCN(CC2CC2)CC1 [AG-348, Mitapivat] | increased | increased | improved
2 | 240 nM | 120% | O=C([C@@H](CO)c1ccccc1)N1Cc2cn(S(=O)(=O)c3cnn(CC(F)F)c3)nc2C1 [Compound 122, (2R)-1-(2-{[1-(2,2-difluoroethyl)-1H-pyrazol-4-yl]sulfonyl}-2H,4H,5H,6H-pyrrolo[3,4-c]pyrazol-5-yl)-3-hydroxy-2-phenylpropan-1-one] |  |  | 
